Source: paper PMC5131364, “Pharmacologic modulation of RORγt translates to efficacy in preclinical and translational models of psoriasis and inflammatory arthritis” (Scientific Reports, 2016)

Columns and labels:
Assay type in all cases: cell-based
[1] = system: human CD4+ CD45RO+ CCR6+ T cells; assay: Human memory CCR6+ T cells in vitro activation
Excerpt: The following antibodies (anti-mouse or anti-human) were purchased from BD Biosciences (San Diego, CA) or eBioscience (San Diego, CA): anti-CD3-FITC (mouse 17A2 and human SK7), anti-CD4-allophycocyanin (APC), anti-CD4-PerCp, anti-CD4-FITC, anti-CD4-PE (mouse GK1.5 and human SK3), anti-CD44-PerCp (mouse IM7), anti-γδ TCR-FITC, anti-γδ TCR-PE (mouse GL3 and human B1), anti-CD62L-FITC (mouse MEL-14 and human SK11), anti-CD45RO-APC (human UCHL1), anti-CCR6-PE (human 11A9), anti-CD45-PerCp (mouse 30-F11). Human or mouse anti-IFNγ (mouse XMG1.2 and human 4S.B3), anti-TNFα (mouse MP6-XT22 and human MAB11), anti-IL-17A (mouse eBio17B7 and human eBio64DEC17), anti-IL-22 (mouse 1H8PWSR and human 22URTI), and anti-Foxp3 (mouse FJK-16s and human 36A/E7), all PE or APC conjugated, were purchased from eBioscience (San Diego, CA). Human and mouse APC conjugated CD1d tetramers pre-loaded with alpha-GalCer and negative controls were obtained from ProImmune. For intracellular staining cells were stimulated for 4 hours at 37 °C with PMA and ionomycin (0.5 μg/ml each) in the presence of brefeldin A and monensin or with leukocyte activation cocktail (BD Bioscience, San Diego, CA). Cells were stained with fluorescence-labeled antibodies for surface marker, then fixed/permeabilized (eBioscience) and stained with antibodies for intracellular cytokines. For Foxp3 staining cells were fixed/permeabilized using transcription factor buffer set (eBioscience). The data were acquired on a FACS Calibur (BD Bioscience) and analyzed using FlowJo software (Tree Star, San Carlos, CA).
Human blood samples from healthy donors were provided by the Scripps Research Institute, La Jolla following Institutional Review Board approved protocol. Total CD4^+ T cells were isolated from the peripheral blood mononuclear cells (PBMCs) using a CD4^+ T cell Isolation Kit II (Miltenyl Biotec, Auburn, CA), following the manufacturer’s instructions. CCR6^+ cells were isolated from CD4^+ T cells using phycoerythrin (PE) conjugated anti-CCR6 antibody followed by anti-PE microbeads. Isolated CCR6^+ T cells were resuspended in culture medium and added to a 96-well plate which was pre-coated with 1 μg/ml anti-CD3 (BD Bioscience) at 1 × 10^5 cells per well. […] Cells were cultured at 37 °C and 5% CO2 for 6 days. Supernatants were assayed for accumulated cytokines using MSD multi-spot assay (Meso Scale Discovery, Rockville, MD) or R&D ELISA kit, and cells were used for intracellular staining.

[2] = system: CD4+ T cells under Th1 conditions; assay: Mouse CD4+ T cell in vitro Th1 differentiation; settings: titrated compound, ELISA
Experimental: (§1) Mouse CD4+ T cell in vitro Th1 differentiation
(§2) Total CD4+ T cells were isolated from splenocytes of C57/BL6 mice (Chareles River Labrotory) using a CD4+ T cell isolation kit (Miltenyl Biotec, Auburn, CA), following the manufacturer’s instructions. Cells were resuspended in culture medium (described in Method section of Th17 differentiation) and were added to 96‐well plates at 2x10^5 per well. Titrated JNJ‐54271074 was added to each well at final DMSO concentration of 0.2%. Cells were incubated for 1 hour, after which Th1 cell differentiation medium was added with final concentrations of 1 µg/ml anti‐CD3, 5 µg/mL anti‐CD28 (BD Pharmingen, San Diego, CA), 10 µg/ml anti‐IL4, 10 ng/mL IL‐12, (R&D Systems, Minneapolis, MN). Cells were cultured at 37 °C and 5% CO2 for 3 days. Supernatants were collected and the accumulated cytokines in culture were measured by ELISA kits (R&D Systems, Minneapolis, MN) following manufacturers' instructions.
IL‐23 induced IL‐17A and IL‐22 production in mouse splenocytes splenocytes were isolated from C57/BL6 mice and resuspended in medium and cultured in 96‐well plates at […] per 100 µL per well. […] Supernatants were collected and the accumulated cytokines in culture were measured by ELISA according to the manufacturer’s instructions (IL‐17A kit from R&D systems, and IL‐22 from Biolegend San Diego). […]

[3] = system: iNKT cells from human PBMCs; assay: Human NKT cell in vitro activation; settings: IL-1β/IL-23, 6 days, 1 μM
[4] = system: human CCR6+ T cells; assay: Human CCR6+ cells under Th1 differentiation condition; settings: Th1 polarization conditions
Experimental: as §1, §2
IL‐23 induced IL‐17A and IL‐22 production in mouse splenocytes splenocytes were isolated from C57/BL6 mice and resuspended in medium and cultured in 96‐well plates at […] per 100 µL per well. Titrated JNJ‐54271074 in DMSO were added into each well and cells were incubated for 1 hour, then medium containing IL‐23 and IL‐2 (R&D systems) was added to each well at final concentration of 1 ng/mL and 10 U/ml, respectively. Cells were cultured at 37 °C and 5% CO2 for 4 days. Supernatants were collected and the accumulated cytokines in culture were measured by ELISA according to the manufacturer’s instructions (IL‐17A kit from R&D systems, and IL‐22 from Biolegend San Diego).
Human CCR6+ cells in vitro culture without activation or under Th1 differentiation condition Human CCR6+ cells were isolated as described in Method. For experiment without activation, cells were cultured with recombinant IL‐7 (R&D) at final concentration of 10 ng/ml in the presence of 1 µM JNJ‐ 54271074 for 4 days before intracellular staining. […]

For `COc1nc2ccc([C@@](O)(c3ccc(C)nc3C)c3cnnn3C)cc2c(Cl)c1Cc1ccc(C(F)(F)F)cc1` [JNJ-54271074], which IFNγ production ([1]; 1 μM) is on record?
The IFNγ production was “slightly increasing”.

And the “IL-22, TNFα and GM-CSF production” value ([1]; 1 μM)?
Its value is “trend of decreasing”.

What about the “increase of IL-10 production over the control” value ([1]; 1 μM) of the same compound?
The value was 49%.

What about the “number of IL-17A-producing cells (single- and double-positive)” value ([1]; 1 μM, flow cytometry) of the same compound?
The value was “significantly decreased”.

And the inhibition at 1 µM ([1]; Homo sapiens, T-cell, vs DMSO control, non-polarizing activation, read-out: inhibition of IL-17A production)?
Its inhibition at 1 µM is 77%.

What about the “IFNγ production under Th1 conditions” value [2] of the same compound?
Its value is “minimal effects”.

And the “IL-17A production by iNKT cells from human PBMCs” value [3]?
Its value is “suppressed”.

And the “accumulated IFNγ production” value [4]?
The value was “minimal effect”.

What about the “IFNγ+ cells” value ([4]; 1 μM) of the same compound?
The value was “slightly increased”.

And the “IL-17A+/IFNγ+ and IL-17A+ cells” value ([4]; 1 μM)?
The value was “decreased”.
